In patent publication US8362216B2, “Method of detection using antibodies that specifically bind hedgehog-derived polypeptides” (The Johns Hopkins University School of Medicine, priority 1994, dated 2013):
“Also recorded” adds a separate entry of the source.

Molecular target: His6Hh-C protein (Drosophila melanogaster, UniProt Q02936, DEL89-254)
Assay: In vitro autocleavage reaction of bacterially expressed His6Hh-C protein (DTT / lipid stimulation)
Details: lipid added with 1 mM DTT (cholesterol 0.35 mM)

His6Hh-C protein, sequence (Q02936 other isoform, or with tags, fused parts or gaps DEL89-254): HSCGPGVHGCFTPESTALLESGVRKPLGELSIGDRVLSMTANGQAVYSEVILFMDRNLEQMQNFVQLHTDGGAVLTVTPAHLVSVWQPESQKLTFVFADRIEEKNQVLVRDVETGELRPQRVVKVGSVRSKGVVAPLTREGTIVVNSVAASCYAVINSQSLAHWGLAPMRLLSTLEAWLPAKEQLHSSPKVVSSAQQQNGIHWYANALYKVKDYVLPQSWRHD

CC(C)CCC[C@@H](C)[C@H]1CC[C@H]2[C@@H]3CC=C4C[C@@H](O)CC[C@]4(C)[C@H]3CC[C@]12C [cholesterol]
Stimulation of His6Hh-C autocleavage in vitro: stimulates His2Hh-C autocleavage; also recorded: displayed stimulatory activity similar to that observed with lipids extracted from spot B
